Experimental data published in patent publication US20120083522A1, “MODULATION OF INFLAMMATORY RESPONSES BY FACTOR XI” (Isis Pharmaceuitcals, inc., priority 2009, published 2012).
In the oligonucleotide strings, read from the 5' end, every base follows the letter of its sugar. An asterisk marks phosphorothioate; unmarked linkages are phosphodiester. Other units and linkages are bracketed, terminal groups are in braces. A string of capitals states the bases alone. e = 2'-O-(2-methoxyethyl) (MOE); [5mC] = 5-methylcytosine; d = 2'-deoxy (DNA)

Experiments:
Assay type in all cases: cell-based
human Factor XI mRNA [1] = test: Dose-dependent antisense inhibition in HepG2 cells, lipofectin (Example 2); conditions: approximately 16 hours
Procedure: Cells were plated at a density of 10,000 cells per well and transfected using lipofectin reagent with 9.375 nM, 18.75 nM, 37.5 nM, 75 nM, and 150 nM concentrations of antisense oligonucleotide, as specified in Table 3. After a treatment period of approximately 16 hours, RNA was isolated from the cells and Factor XI mRNA levels were measured by quantitative real-time PCR. Human Factor XI primer probe set RTS 2966 (forward sequence: […], incorporated herein as SEQ ID NO: 3; reverse sequence: […], incorporated herein as SEQ ID NO: 4; probe sequence: TTGTCTACTGAAGCACACCCAAACAGGGAX, wherein X is the fluorophore, incorporated herein as SEQ ID NO: 5) was used to measure mRNA levels. Factor XI mRNA levels were adjusted according to total RNA content, as measured by RIBOGREEN®. Results are presented as percent inhibition of Factor XI, relative to untreated control cells.

human Factor XI mRNA [2] = test: Antisense inhibition in HepG2 cells by microwalk gapmers, 75 nM, lipofectin (Example 3); conditions: HepG2 cells, 75 nM, oligonucleotides targeted to nucleobases 1275 to 1318 of SEQ ID NO: 1
How it was run: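 HepG2 cells (10,000 per well) were transfected with 75 nM gapmer using lipofectin and treated for about 24 h. Factor XI mRNA was quantified by real-time PCR, normalized to RiboGreen total RNA and expressed as percent inhibition versus untreated controls.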

human Factor XI mRNA [3] = test: Antisense inhibition in HepG2 cells by microwalk gapmers, 8,000 nM, electroporation (Example 14); conditions: HepG2 cells, 8,000 nM
Procedure: These microwalk gapmers were tested in vitro. Cultured HepG2 cells at a density of 20,000 cells per well were transfected using electroporation with 8,000 nM antisense oligonucleotide. After a treatment period of approximately 24 hours, RNA was isolated from the cells and Factor XI mRNA levels were measured by quantitative real-time PCR. Factor XI mRNA levels were adjusted according to total RNA content, as measured by RIBOGREEN. Results are presented as percent inhibition of Factor XI, relative to untreated control cells.
The chimeric antisense oligonucleotides in Table 51 were designed as 5-10-5 MOE, 5-8-5 and 6-8-6 MOE gapmers. The first two listed gapmers in Table 51 are the original gapmers (ISIS 416850 and ISIS 416858) from which ISIS 445493-445543 were designed via microwalk, and are designated by an asterisk. The 5-10-5 gapmers are 20 nucleotides in length, wherein the central gap segment is comprised of ten 2′-deoxynucleotides and is flanked on both sides (in the 5′ and 3′ directions) by wings comprising five nucleotides each. The 5-8-5 gapmers are 18 nucleotides in length, wherein the central gap segment is comprised of eight 2′-deoxynucleotides and is flanked on both sides (in the 5′ and 3′ directions) by wings comprising five nucleotides each. The 6-8-6 gapmers are 20 nucleotides in length, wherein the central gap segment is comprised of eight 2′-deoxynucleotides and is flanked on both sides (in the 5′ and 3′ directions) by wings comprising six nucleotides each. For each of the motifs (5-10-5, 5-8-5 and 6-8-6), each nucleotide in the 5′ wing segment and each nucleotide in the 3′ wing segment has a 2′-MOE modification. The internucleoside linkages throughout each gapmer are phosphorothioate (P═S) linkages. All cytidine residues throughout each gapmer are 5-methylcytidines. “Human Target start site” indicates the 5′-most nucleotide to which the gapmer is targeted in the human sequence. “Human Target stop site” indicates the 3′-most nucleotide to which the gapmer is targeted in the human sequence. Each gapmer listed in Table 51 is targeted to SEQ ID NO: 1 (GENBANK Accession No. NM_000128.3). Each gapmer is Table 51 is also fully cross-reactive with the rhesus monkey Factor XI gene sequence, designated herein as SEQ ID NO: 274 (exons 1-15 GENBANK Accession No. NW—001118167.1). ‘Rhesus monkey start site’ indicates the 5′-most nucleotide to which the gapmer is targeted in the rhesus monkey sequence. ‘Rhesus monkey stop site’ indicates the 3′-most nucleotide to which the gapmer is targeted to the rhesus monkey sequence.

human Factor XI mRNA [4] = test: Dose-dependent inhibition and IC50 in HepG2 cells, electroporation (Example 15)
Procedure: Cells were plated at a density of 20,000 cells per well and transfected using electroporation with 123.46 nM, 370.37 nM, 1,111.11 nM, 3,333.33 nM and 10,000 nM concentrations of antisense oligonucleotide, as specified in Table 52. After a treatment period of approximately 16 hours, RNA was isolated from the cells and Factor XI mRNA levels were measured by quantitative real-time PCR. Human Factor XI primer probe set RTS 2966 was used to measure mRNA levels. Factor XI mRNA levels were adjusted according to total RNA content, as measured by RIBOGREEN. Results are presented as percent inhibition of Factor XI, relative to untreated control cells.

Row | Substance | % inhibition of human Factor XI mRNA levels (human Factor XI mRNA [2]) | Percent inhibition of human Factor XI mRNA levels (human Factor XI mRNA [3]) | percent inhibition of Factor XI mRNA (human Factor XI mRNA [4]; electroporation, 123.47 nM) | percent inhibition of Factor XI mRNA (human Factor XI mRNA [4]; electroporation, 370.37 nM) | percent inhibition of Factor XI mRNA (human Factor XI mRNA [4]; electroporation, 1,111.11 nM) | percent inhibition of Factor XI mRNA (human Factor XI mRNA [4]; electroporation, 3,333.33 nM) | percent inhibition of Factor XI mRNA (human Factor XI mRNA [4]; electroporation, 10,000.0 nM) | other results
1 | 413468 (antisense eG*eT*e[5mC]*eT*eA*dG*dG*dT*d[5mC]*d[5mC]*dA*d[5mC]*dA*dT*dA*eA*eA*eT*eG*eT) [compound 413468] |  |  |  |  |  |  |  | percent inhibition of Factor XI (human Factor XI mRNA [1]; 9.375 nM): 14%; percent inhibition of Factor XI (human Factor XI mRNA [1]; 18.75 nM): 34%; percent inhibition of Factor XI (human Factor XI mRNA [1]; 37.5 nM): 56%; percent inhibition of Factor XI (human Factor XI mRNA [1]; 75 nM): 78%; percent inhibition of Factor XI (human Factor XI mRNA [1]; 150 nM): 75%
2 | 413469 (antisense eT*eG*e[5mC]*e[5mC]*e[5mC]*dT*dT*d[5mC]*dA*dT*dG*dT*d[5mC]*dT*dA*eG*eG*eT*e[5mC]*e[5mC]) [compound 413469] |  |  |  |  |  |  |  | percent inhibition of Factor XI (human Factor XI mRNA [1]; 9.375 nM): 24%; percent inhibition of Factor XI (human Factor XI mRNA [1]; 18.75 nM): 33%; percent inhibition of Factor XI (human Factor XI mRNA [1]; 37.5 nM): 53%; percent inhibition of Factor XI (human Factor XI mRNA [1]; 75 nM): 70%; percent inhibition of Factor XI (human Factor XI mRNA [1]; 150 nM): 84%
3 | 416849 (antisense eG*e[5mC]*eA*e[5mC]*eA*dG*dT*dT*dT*d[5mC]*dT*dG*dG*d[5mC]*dA*eG*eG*e[5mC]*e[5mC]*eT) [compound 416849] | 88% | 88% | 5% | 5% | 26% | 57% | 68% | 
4 | 416853 (antisense eT*eT*eG*eG*eT*dG*d[5mC]*dA*d[5mC]*dA*dG*dT*dT*dT*d[5mC]*eT*eG*eG*e[5mC]*eA) [compound 416853] | 91% | 84% |  |  |  |  |  | 
5 | 416854 (antisense eA*eT*eT*eG*eG*dT*dG*d[5mC]*dA*d[5mC]*dA*dG*dT*dT*dT*e[5mC]*eT*eG*eG*e[5mC]) [compound 416854] | 90% | 86% |  |  |  |  |  | 
6 | 416855 (antisense e[5mC]*eA*eT*eT*eG*dG*dT*dG*d[5mC]*dA*d[5mC]*dA*dG*dT*dT*eT*e[5mC]*eT*eG*eG) [compound 416855] | 87% | 85% |  |  |  |  |  | 
7 | 416857 (antisense e[5mC]*eG*eG*e[5mC]*eA*dT*dT*dG*dG*dT*dG*d[5mC]*dA*d[5mC]*dA*eG*eT*eT*eT*e[5mC]) [compound 416857] | 92% | 91% | 2% | 20% | 35% | 62% | 72% | 
8 | 416862 (antisense eA*eG*e[5mC]*eG*eG*dA*d[5mC]*dG*dG*d[5mC]*dA*dT*dT*dG*dG*eT*eG*e[5mC]*eA*e[5mC]) [compound 416862] | 90% | 89% |  |  |  |  |  | 
9 | 416865 (antisense eT*eG*eG*e[5mC]*eA*dG*d[5mC]*dG*dG*dA*d[5mC]*dG*dG*d[5mC]*dA*eT*eT*eG*eG*eT) [compound 416865] | 88% | 86% |  |  |  |  |  | 
10 | 445498 (antisense GGTGCACAGTTTCTGGCAGG; 6-8-6 gapmer chemistry, chemistry not fully specified) [compound 445498] |  | 83% | 3% | 1% | 27% | 50% | 58% | 
11 | 445503 (antisense GCATTGGTGCACAGTTTCTG; 6-8-6 gapmer chemical modifications, chemistry not fully specified) [compound 445503] |  | 89% | 0% | 0% | 22% | 36% | 60% | IC50 (human Factor XI mRNA [4]; electroporation): 5.9 µM
12 | 445504 (antisense eG*eG*e[5mC]*eA*eT*eT*dG*dG*dT*dG*d[5mC]*dA*d[5mC]*dA*eG*eT*eT*eT*e[5mC]*eT) [compound 445504] |  | 87% | 8% | 20% | 38% | 53% | 68% | 
13 | 445505 (antisense e[5mC]*eG*eG*e[5mC]*eA*eT*dT*dG*dG*dT*dG*d[5mC]*dA*d[5mC]*eA*eG*eT*eT*eT*e[5mC]) [compound 445505] |  | 89% | 12% | 30% | 39% | 59% | 77% | 
14 | 445532 (antisense e[5mC]*eG*eG*e[5mC]*eA*dT*dT*dG*dG*dT*dG*d[5mC]*dA*e[5mC]*eA*eG*eT*eT) [compound 445532] |  | 89% | 5% | 12% | 39% | 60% | 70% | 
15 | 445542 (antisense eT*eG*eG*e[5mC]*eA*dG*d[5mC]*dG*dG*dA*d[5mC]*dG*dG*e[5mC]*eA*eT*eT*eG) [compound 445542] |  | 83% |  |  |  |  |  | 
16 | 445543 (antisense e[5mC]*eT*eG*eG*e[5mC]*dA*dG*d[5mC]*dG*dG*dA*d[5mC]*dG*eG*e[5mC]*eA*eT*eT) [compound 445543] |  | 74% |  |  |  |  |  | 
